Laboratory results: patent US7405228B2, “Antibacterial cyano-(substituted)-methylenepiperidinophenyl oxazolidinones targeting multiple ribonucleoprotein sites” (Wockhardt Limited, priority 2002, dated 2008)
Values after ≈ are worked out from the molar mass of the structure shown.

What was measured:
[1] = system: SPN 49619; experiment: MIC determination, linezolid sensitive SPN 49619; format: cell-based; conditions: Streptococcus pneumoniae; linezolid sensitive strain, Table 3
[2] = system: Enterococcus faecalis 416 strain; experiment: Propensity to resistance development (resistant colonies per plate); format: cell-based; conditions: E. faecalis 416 at 10^8 CFU, compound concentration 5 mcg/ml, 48 hours at 35° C.
Description: Enterococcus faecalis 416 strain at 10^8 CFU density level was spirally plated on Mueller Hinton agar containing 5 mcg/ml each of linezolid and representative compound of the invention. Plates were incubated at 35° C. for 48 hours and number of resistant colonies developed in presence of respective compounds were counted by automated counter.

[3] = system: MRSA 032; experiment: MIC determination, linezolid sensitive MRSA 032 (MRSA-32); format: cell-based; conditions: Staphylococcus aureus, read-out: MIC MRSA 32
Description: (§1) Infecting doses of organisms given by intraperitoneal route in 5% hog gastric mucin were 10^3-10^4 CFU (colony forming units)/animal for SPN 6303 and 10^8 CFU/animal for MRSA-32. In case of MRSA-32, Linezolid was administered by oral route, 1 and 4 h post infection, BID (twice a day) for 1 day and for SPN 6303 BID for 2 days. […] MICs of Methicillin Resistant Staphylococcus aureus-32 Linezolid resistant (MRSA-32 LNZR), S. pneumoniae 744 Linezolid resistant (SPN 744 LNZR) and parent Linezolid sensitive strains MRSA-32 and SPN 6303 were determined for Linezolid by NCCLS agar dilution method.
(§2) Cultures were further diluted 1:10 in Mueller Hinton broth. Using Denley's mutipoint inoculator, 10^4 cells were deposited on Mueller Hinton agar (Difco) containing range of 2 fold dilutions of test compounds. […] MIC is defined as minimum drug concentration that inhibits test organisms. For determining MIC of test compounds against Streptococcus pneumoniae, Mueller Hinton agar containing 5% sheep blood was employed.

[4] = system: S. aureus MRSA-32 LNZR; experiment: MIC determination, linezolid resistant S. aureus MRSA-32 LNZR; format: cell-based; conditions: Staphylococcus aureus, 24 h, read-out: MIC MRSA 32 LNZR
Description: as §1, §2

[5] = system: SPN 744 LNZR; experiment: MIC determination, linezolid resistant SPN 744 LNZR; format: cell-based; conditions: Streptococcus pneumoniae, read-out: MIC SPN744 LNZR
Description: as §1, §2

[6] = system: E. faecium 367 LNZR; experiment: MIC determination, linezolid resistant E. faecium 367 LNZR; format: cell-based; conditions: Enterococcus faecium, read-out: MIC E. faecium 367 LNZR
Description: E. faecium ATCC 19434 strain at a cell density of 10^6/ml was inoculated in Mueller Hinton broth medium containing Linezolid at a concentration of 5 and 7.5 mcg/ml. The stationary culture was incubated at 37° C. and inspected at every 24 hours to assess the formation of turbidity due to the onset of bacterial growth. […] A 50 microliter sample of turbid flask was plated on Mueller Hinton agar medium incorporated with linezolid at 7.5 mcg/ml. The agar plates were incubated for 48 hours at 37° C. for the formation of discrete colonies of linezolid-resistant strain of E. faecium (E. faecium 367 LNZR). MICs of resistant mutant E. faecium 367 LNZR and parent strain E. faecium ATCC 19434 were determined for linezolid by NCCLS method.
as §2

[7] = system: Enterococcus faecalis 416 strain; experiment: Killing effect study (bactericidal vs bacteriostatic activity); format: cell-based; conditions: E. faecalis 416, 5 mcg/ml compound, initial count 10^6 CFU/ml, Table 4
Description: The initial inoculum was adjusted to 10^6 CFU (colony forming units) per ml. The flasks were kept on shaker in close cabinet at 35° C. Aliquots were drawn at 112 hours and cell count was determined to assess the extent of loss in viability.

[8] = system: Enterococcus faecalis 416; experiment: Mutant Prevention Concentration (MPC) determination; format: cell-based; parameters: unit not given here; conditions: E. faecalis 416, 10^9 CFU/plate, TSA, 48 hours at 35° C.
Description: Clinical isolate Enterococcus faecalis 416 was spirally plated on Tryptic Soya agar (TSA) plate containing various 2 fold dilutions each of a representative compound of the invention and Linezolid so as to give 10^9 CFU/plate. After incubation at 35° C. for 48 hours, the CFU on each plate was determined. MPC is defined as minimum concentration of drug that prevents mutant colonies on respective antibiotic containing plate.

[9] = system: linezolid-resistant S. pneumoniae; conditions: Adis R&D Insight report Document 013296; cited from earlier work

Row | SMILES | MIC [1] [µg/mL] | No. of colonies/plate [2] | MIC [3] [µg/mL] | MIC [4] [µg/mL] | MIC [5] [µg/mL] | MIC [6] [µg/mL] | Final Count (112 h) [7] | MPC [8] | melting point [°C] | activity against linezolid-resistant S. pneumoniae [9]
1 | N#CC=C1CCN(c2ccc(N3C[C@H](CNC(=S)CO)OC3=O)cc2F)CC1 [Example 47, (S)-N-{3-[4-(4-cyanomethylidene-piperidin-1-yl)-3-fluorophenyl]-2-oxo-oxazolidin-5-ylmethyl}-2-hydroxythioacetamide] | 0.4 (≈ 0.989 µM) | 0 | 0.8 (≈ 1.98 µM) | – | – | – | – | – | – | –
2 | CC(=O)NC[C@H]1CN(c2ccc(N3CCC(=C(C)C#N)CC3)c(F)c2)C(=O)O1 [Example 74, (S)-N-{3-[4-(4-(1-cyanoethylidene)-piperidin-1-yl)-3-fluorophenyl]-2-oxo-oxazolidin-5-ylmethyl}-acetamide] | – | 0 | – | 25 (≈ 64.7 µM) | 6.25 (≈ 16.2 µM) | 6.25 (≈ 16.2 µM) | – | – | – | –
3 | CC(=O)NC[C@H]1CN(c2ccc(N3CCC(=CC#N)CC3)cc2)C(=O)O1 [Example 3, (S)-N-{3-[4-(4-cyanomethylidene-piperidin-1-yl)-phenyl]-2-oxo-oxazolidin-5-ylmethyl}-acetamide] | 0.8 (≈ 2.26 µM) | 0 | 1.56 (≈ 4.4 µM) | 25 (≈ 70.5 µM) | 12.5 (≈ 35.3 µM) | 25 (≈ 70.5 µM) | 10^6 CFU/ml | 12.5 | – | –
4 | N#CC=C1CCN(c2ccc(N3C[C@H](CNC(=O)CCl)OC3=O)cc2F)CC1 [Example 31, (S)-N-{3-[4-(4-cyanomethylidene-piperidin-1-yl)-3-fluorophenyl]-2-oxo-oxazolidin-5-ylmethyl}-chloroacetamide] | 0.8 (≈ 1.97 µM) | 0 | 0.8 (≈ 1.97 µM) | 12.5 (≈ 30.7 µM) | 12.5 (≈ 30.7 µM) | 6.25 (≈ 15.4 µM) | – | – | – | –
5 | CC(=O)NC[C@H]1CN(c2ccc(N3CC=C(CC#N)CC3)c(F)c2)C(=O)O1 [Example 159, (S)-N-{3-[4-(4-cyanomethyl-3,4-dehydropiperidin-1-yl)-3-fluorophenyl]-2-oxo-oxazolidin-5-ylmethyl}-acetamide] | – | 1.5 × 10^1 | – | – | – | – | – | – | 132 | –
6 | COC(=S)NC[C@H]1CN(c2ccc(N3CCC(=CC#N)CC3)c(F)c2)C(=O)O1 [Example 46, (S)-N-{3-[4-(4-cyanomethylidene-piperidin-1-yl)-3-fluorophenyl]-2-oxo-oxazolidin-5-ylmethyl}-methylthiocarbamate] | 0.2 (≈ 0.494 µM) | 0 | 0.2 (≈ 0.494 µM) | 6.25 (≈ 15.5 µM) | 6.25 (≈ 15.5 µM) | 1.56 (≈ 3.86 µM) | <10^2 CFU/ml | 1.56 | – | –
7 | CC(=O)NC[C@H]1CN(c2ccc(N3CCC(=CC#N)CC3)c(F)c2)C(=O)O1 [Example 9, (S)-N-{3-[4-(4-cyanomethylidene-piperidin-1-yl)-3-fluorophenyl]-2-oxo-oxazolidin-5-ylmethyl}-acetamide] | – | 0 | – | – | – | – | 10^3 CFU/ml | 6.25 | – | –
8 | C#CCC(C#N)=C1CCN(c2ccc(N3C[C@H](CNC(C)=O)OC3=O)cc2F)CC1 [Example 96, (S)-N-{3-[4-(4-(1-cyano-3-yne-butylidene)-piperidin-1-yl)-3-fluorophenyl]-2-oxo-oxazolidin-5-ylmethyl}-acetamide] | 0.8 (≈ 1.95 µM) | 0 | 0.8 (≈ 1.95 µM) | 12.5 (≈ 30.5 µM) | 6.25 (≈ 15.2 µM) | 3.12 (≈ 7.6 µM) | <10^2 CFU/ml | 6.25 | – | –
9 | N#CC=C1CCN(c2ccc(N3C[C@H](CNC(=O)C(Cl)Cl)OC3=O)cc2F)CC1 [Example 32, (S)-N-{3-[4-(4-cyanomethylidene-piperidin-1-yl)-3-fluorophenyl]-2-oxo-oxazolidin-5-ylmethyl}-dichloroacetamide] | 0.8 (≈ 1.81 µM) | 0 | 0.8 (≈ 1.81 µM) | 12.5 (≈ 28.3 µM) | 6.25 (≈ 14.2 µM) | 6.25 (≈ 14.2 µM) | – | 6.25 | – | –
10 | CCC(C#N)=C1CCN(c2ccc(N3C[C@H](CNC(=O)C(Cl)Cl)OC3=O)cc2F)CC1 [Example 90, (S)-N-{3-[4-(4-(1-cyanopropylidene)-piperidin-1-yl)-3-fluorophenyl]-2-oxo-oxazolidin-5-ylmethyl}-dichloroacetamide] | 0.4 (≈ 0.852 µM) | 0 | 0.8 (≈ 1.7 µM) | 12.5 (≈ 26.6 µM) | 6.25 (≈ 13.3 µM) | 3.12 (≈ 6.65 µM) | – | – | – | –
11 | O=C([C@@H](O)CO)N1CC=C(c2c(F)cc(N3C[C@H](COc4ccon4)OC3=O)cc2F)CC1 [AZD 2563] | – | – | – | – | – | – | – | – | – | ineffective
12 | N#CC=C1CCN(c2ccc(N3C[C@H](CNC(N)=S)OC3=O)cc2F)CC1 [Example 51, (S)-N-{3-[4-(4-cyanomethylidene-piperidin-1-yl)-3-fluorophenyl]-2-oxo-oxazolidin-5-ylmethyl}-thiocarbamide] | 0.2 (≈ 0.514 µM) | 0 | 0.4 (≈ 1.03 µM) | 3.12 (≈ 8.01 µM) | 3.12 (≈ 8.01 µM) | 1.56 (≈ 4.01 µM) | <10^2 CFU/ml | 1.56 | – | –
13 | CC(=S)NC[C@H]1CN(c2ccc(N3CC/C(=C\C#N)C(F)C3)c(F)c2)C(=O)O1 (stereo partly drawn) [Example 60, (S)-N-{3-[4-(4-cyanomethylidene-3-fluoropiperidin-1-yl)-3-fluorophenyl]-2-oxo-oxazolidin-5-ylmethyl}-thioacetamide] | 0.1 (≈ 0.246 µM) | – | 0.25 (≈ 0.615 µM) | 6.25 (≈ 15.4 µM) | 3.12 (≈ 7.68 µM) | 1.56 (≈ 3.84 µM) | – | – | – | –
14 | CC(=O)NC[C@H]1CN(c2ccc(N3CCC(=CC#N)C(F)C3)c(F)c2)C(=O)O1 (mixture of isomers) [Example 56, (S)-N-{3-[4-(4-cyanomethylidene-3-fluoropiperidin-1-yl)-3-fluorophenyl]-2-oxo-oxazolidin-5-ylmethyl}-acetamide] | – | 0 | – | – | – | – | – | – | – | –
15 | CC(=S)NC[C@H]1CN(c2ccc(N3CC=C(CC#N)CC3)c(F)c2)C(=O)O1 [Example 160, (S)-N-{3-[4-(4-cyanomethyl-3,4-dehydropiperidin-1-yl)-3-fluorophenyl]-2-oxo-oxazolidin-5-ylmethyl}-thioacetamide] | 0.2 (≈ 0.515 µM) | 0 | 0.4 (≈ 1.03 µM) | 6.25 (≈ 16.1 µM) | 3.12 (≈ 8.03 µM) | – | <10^2 CFU/ml | – | – | –
16 | CC(=O)NC[C@H]1CN(c2ccc(N3CCC(=C(Br)C#N)CC3)c(F)c2)C(=O)O1 [Example 117, (S)-N-{3-[4-(4-(1-cyano-1-bromo-methylidene)-piperidin-1-yl)-3-fluorophenyl]-2-oxo-oxazolidin-5-ylmethyl}-acetamide] | 0.4 (≈ 0.886 µM) | – | 0.8 (≈ 1.77 µM) | 12.5 (≈ 27.7 µM) | 6.25 (≈ 13.8 µM) | 3.12 (≈ 6.91 µM) | – | – | – | –
